Our source for the activity values is patent US10464896B2, “Efflux-pump inhibitors and therapeutic uses thereof” (Basilea Pharmaceutica International AG, priority 2015, dated 2019).

SMILES strings stand for the structures.

The subject of the first experiment is E. coli ATCC25922. Briefly: Antibacterial activity in combination with minocycline (growth inhibition). The class given is cell-based. The conditions noted are these: Escherichia coli, ATCC25922, compound at 25 μM; minocycline 0.25 μg/mL; OD625 23 h minus 1 h; read-out: residual growth of E. coli ATCC25922 (% of uninhibited control) with minocycline. As to the method: Antibacterial activity in combination with minocycline or with linezolid
Inhibition of growth was measured with E. coli ATCC25922 and P. aeruginosa PAO1 in a 96-well plate format. Cation-adjusted Müller-Hinton broth (caMHB) was inoculated with an overnight culture and incubated at 37° C. on a shaker until OD625 reached 0.6 to 0.7. Density was adjusted to OD600=0.5 by addition of caMHB. 35 μL of the suspension were diluted to 35 mL with caMHB and supplemented with minocycline at the subinhibitory doses of 0.25 μg/mL for E. coli and 8 μg/mL for P. aeruginosa or with linezolid at the subinhibitory dose of 128 μg/mL for E. coli and P. aeruginosa. Each well contained 1 μL of test compound in 100 μL caMHB with minocycline or with linezolid.
Plates were incubated at 37° C. on a plate shaker. OD625 was measured at 1 h, 6 h, and at 23 h.
The difference between OD at 23 h and at 1 h was taken as measure for cell density and compared to controls without inhibitor (i.e. uninhibited control). Results were expressed as residual growth (% of uninhibited control). Enhancement of minocycline or linezolid activity caused reduced residual growth.
As for `NCC1CCC(CNCc2cccc(/C=C/c3ccc(Cl)cc3Br)c2)N1` (stereo not drawn) [Example 191], the activity at 25 µM is not above 10%.

For the compound `NCC1CCC(CNCc2cc(Cl)cc(OCc3ccc(Cl)cc3Br)c2)N1` (stereo not drawn) [Example 193], the activity at 25 µM was not above 10%.

In the case of `C=CCOc1cc(CNCC2CCNC2)cc(CSc2ccc(Cl)cc2Br)c1` (stereo not drawn) [Example 194], the activity at 25 µM was not above 10%.

On to `C=CCOc1cc(CNCC2CNC2)cc(CSc2ccc(Cl)cc2Br)c1` [Example 196], for which the activity at 25 µM is not above 10%.

Regarding `COC(=O)c1ccc(COc2cc(CNCC3CCNC3)cc(OCc3ccc(Cl)cc3Br)c2)cc1` (stereo not drawn) [Example 197], the activity at 25 µM is not above 10%.

With `Clc1ccc(/C=C/c2cc(CNCC3CNC3)cc(OCc3ccccc3)c2)c(Br)c1` [Example 198], the activity at 25 µM was not above 10%.

As for `Clc1ccc(/C=C/c2cc(Cl)ccc2OCCCNCC2CNC2)c(Br)c1` [Example 199], the activity at 25 µM is not above 10%.

As to `Clc1ccc(/C=C/c2ccccc2OCCCNCC2CNC2)c(Br)c1` [Example 200], the activity at 25 µM was not above 10%.

`Clc1ccc(/C=C/c2cccc(OCCCNCC3CNC3)c2)c(Br)c1` [Example 201, N-(azetidin-3-ylmethyl)-3-[3-[(E)-2-(2-bromo-4-chloro-phenyl)vinyl]phenoxy]propan-1-amine]: the activity at 25 µM is not above 10%.

In the case of `Clc1ccc(/C=C/c2cccc(OCCCNCC3CCNC3)c2)c(Br)c1` (stereo not drawn) [Example 202], the activity at 25 µM is not above 10%.

`Clc1ccc(/C=C/c2ccccc2OCCCNCC2CCNC2)c(Br)c1` (stereo not drawn) [Example 203]: the activity at 25 µM is not above 10%.

For `O=C(O)c1ccc(COc2cc(CNCC3CCNC3)cc(OCc3ccc(Cl)cc3Br)c2)cc1` (stereo not drawn) [Example 205], the activity at 25 µM was not above 10%.

With `Ic1ccc(COc2cccc(CNCC3CCNC3)c2)cc1` (stereo not drawn) [Example 207], the activity at 25 µM is not above 10%.

As for `Clc1ccc(/C=C/c2cc(Cl)ccc2OCCNCC2CNC2)c(Br)c1` [Example 209], the activity at 25 µM was not above 10%.

On to `Clc1ccc(/C=C/c2cc(Cl)ccc2OCCNCC2CCNC2)c(Br)c1` (stereo not drawn) [Example 210], for which the activity at 25 µM was not above 10%.

Take `C=CCOc1ccc(OCCNCC2CCNC2)c(/C=C/c2ccc(Cl)cc2Br)c1` (stereo not drawn) [Example 211]: the activity at 25 µM was not above 10%.

Consider `C=CCOc1ccc(OCCNCC2CNC2)c(/C=C/c2ccc(Cl)cc2Br)c1` [Example 212], for which the activity at 25 µM was not above 10%.

Take `C=CCOc1ccc(OCCCNCC2CCNC2)c(/C=C/c2ccc(Cl)cc2Br)c1` (stereo not drawn) [Example 213]: the activity at 25 µM was not above 10%.

Regarding `C=CCOc1ccc(OCCCNCC2CNC2)c(/C=C/c2ccc(Cl)cc2Br)c1` [Example 214], the activity at 25 µM is not above 10%.

As to `CC(C)(C)c1ccc(COc2ccc(CNCC3CCNC3)cc2)cc1` (stereo not drawn) [Example 215], the activity at 25 µM is not above 10%.

In the case of `CC(C)(C)c1ccc(COc2cccc(CNCC3CCNC3)c2)cc1` (stereo not drawn) [Example 216], the activity at 25 µM was not above 10%.

As for `CC(C)c1cc(CNCC2CCNC2)cc(OCc2ccc(Cl)cc2Br)c1` (stereo not drawn) [Example 217], the activity at 25 µM is not above 10%.

With `CC(C)(C)c1cc(CNCC2CCNC2)cc(OCc2ccc(Cl)cc2Br)c1` (stereo not drawn) [Example 218], the activity at 25 µM was not above 10%.

In the case of `CC(C)c1cc(CNCC2CNC2)cc(OCc2ccc(Cl)cc2Br)c1` [Example 224], the activity at 25 µM is not above 10%.

`CC(C)(C)c1cc(CNCC2CNC2)cc(OCc2ccc(Cl)cc2Br)c1` [Example 225]: the activity at 25 µM is not above 10%.

As for `CC(C)(C)c1ccc(COc2cc(Cl)cc(CNC3CCNCC3)c2)cc1` [Example 226], the activity at 25 µM was not above 10%.

`CC(C)(C)c1ccc(COc2cc(Cl)cc(CNCC3CCNC3)c2)cc1` (stereo not drawn) [Example 227]: the activity at 25 µM was not above 10%.

On to `CC(C)(C)c1ccc(COc2cc(Cl)cc(CNCC3CNC3)c2)cc1` [Example 228], for which the activity at 25 µM was not above 10%.

Consider `Clc1ccc(COc2cccc(CNCC3CNC3)c2)c(I)c1` [Example 229], for which the activity at 25 µM was not above 10%.

On to `Clc1ccc(COc2cccc(CNCC3CCNC3)c2)c(I)c1` (stereo not drawn) [Example 230], for which the activity at 25 µM was not above 10%.

Take `CC(C)(C)c1ccc(COc2ccc(CNCC3CNC3)cc2)cc1` [Example 231]: the activity at 25 µM was not above 10%.

Turning to `CC(C)(C)c1ccc(/C=C/c2cccc(CNCC3CCNC3)c2)cc1` (stereo not drawn) [Example 233], the activity at 25 µM was not above 10%.

With `CC(C)(C)c1ccc(/C=C/c2cccc(CNCC3CNC3)c2)cc1` [Example 234], the activity at 25 µM was not above 10%.

On to `CC(C)(C)c1ccc(/C=C\c2cccc(CNC3CCNCC3)c2)cc1` [Example 235], for which the activity at 25 µM was not above 10%.

For the compound `CC(C)(C)c1ccc(/C=C\c2cccc(CNCC3CCNC3)c2)cc1` (stereo not drawn) [Example 236, 1-[3-[(Z)-2-(4-tert-butylphenyl)vinyl]phenyl]-N-(pyrrolidin-3-ylmethyl)methanamine], the activity at 25 µM was not above 10%.

In the case of `CC(C)(C)c1ccc(/C=C\c2cccc(CNCC3CNC3)c2)cc1` [Example 237], the activity at 25 µM is not above 10%.

For `Clc1ccc(COc2cc(CNCC3CCNC3)cc(OCCN3CCOCC3)c2)c(Br)c1` (stereo not drawn) [Example 238], the activity at 25 µM was not above 10%.

Turning to `Clc1ccc(COc2cc(CNCC3CNC3)cc(OCCN3CCOCC3)c2)c(Br)c1` [Example 239], the activity at 25 µM is not above 10%.

Consider `CC(C)(C)c1ccc(/C=C/c2cccc(CNC3CCNCC3)c2)cc1` [Example 240], for which the activity at 25 µM was not above 10%.

In the case of `Clc1ccc(/C=C\c2cc(CNCC3CCNC3)cc(OCCN3CCOCC3)c2)c(Br)c1` (stereo not drawn) [Example 241], the activity at 25 µM was not above 10%.

Consider `Clc1ccc(/C=C\c2cc(CNCC3CNC3)cc(OCCN3CCOCC3)c2)c(Br)c1` [Example 242], for which the activity at 25 µM is not above 10%.

`Clc1ccc(/C=C/c2cc(CNCC3CNC3)cc(OCCN3CCOCC3)c2)c(Br)c1` [Example 243]: the activity at 25 µM is not above 10%.

As for `Clc1ccc(/C=C/c2cc(CNCC3CCNC3)cc(OCCN3CCOCC3)c2)c(Br)c1` (stereo not drawn) [Example 246], the activity at 25 µM was not above 10%.

Consider `C[N+]1(C)CC(OCCOc2cc(CNCC3CCNC3)cc(OCc3ccc(Cl)cc3Br)c2)CC1C(=O)O` (stereo not drawn) [Example 247], for which the activity at 25 µM was not above 10%.

Take `C[N+]1(C)CC(OCCOc2cc(CNCC3CNC3)cc(OCc3ccc(Cl)cc3Br)c2)CC1C(=O)O` (stereo not drawn) [Example 248]: the activity at 25 µM was not above 10%.

For the compound `CN1CC(OCCOc2cc(CNCC3CNC3)cc(OCc3ccc(Cl)cc3Br)c2)CC1C(=O)O` (stereo not drawn) [Example 249], the activity at 25 µM is not above 10%.

In the case of `Clc1ccc(COc2cc(CNCC3CNC3)cc(OCCc3c[nH]cn3)c2)c(Br)c1` [Example 252], the activity at 25 µM is not above 10%.

As to `Clc1ccc(/C=C\c2cc(CNCC3CCNC3)cc(OCCc3ccncc3)c2)c(Br)c1` (stereo not drawn) [Example 253], the activity at 25 µM was not above 10%.

Take `Clc1ccc(/C=C/c2cc(CNCC3CCNC3)cc(OCCc3ccncc3)c2)c(Br)c1` (stereo not drawn) [Example 254]: the activity at 25 µM was not above 10%.

For `Clc1ccc(/C=C\c2cc(CNCC3CNC3)cc(OCCc3c[nH]cn3)c2)c(Br)c1` [Example 255], the activity at 25 µM is not above 10%.

As for `Clc1ccc(COc2cc(CNCC3CNC3)cc(OCCc3ccncc3)c2)c(Br)c1` [Example 256], the activity at 25 µM was not above 10%.

In the case of `Clc1ccc(/C=C\c2cc(CNCC3CNC3)cc(OCCc3ccncc3)c2)c(Br)c1` [Example 257], the activity at 25 µM was not above 10%.

Consider `Clc1ccc(COc2cc(CNCC3CCNC3)cc(OCCc3ccncc3)c2)c(Br)c1` (stereo not drawn) [Example 258], for which the activity at 25 µM was not above 10%.

For `Clc1ccc(/C=C\c2cc(CNCC3CCNC3)cc(OCCc3c[nH]cn3)c2)c(Br)c1` (stereo not drawn) [Example 259], the activity at 25 µM was not above 10%.

With `Clc1ccc(/C=C/c2cc(CNCC3CNC3)cc(OCCc3ccncc3)c2)c(Br)c1` [Example 260], the activity at 25 µM was not above 10%.

Consider `Clc1ccc(/C=C/c2cc(CNCC3CNC3)cc(OCCc3c[nH]cn3)c2)c(Br)c1` [Example 261], for which the activity at 25 µM was not above 10%.

Consider `Clc1ccc(/C=C/c2cc(CNCC3CCNC3)cc(OCCc3c[nH]cn3)c2)c(Br)c1` (stereo not drawn) [Example 262], for which the activity at 25 µM was not above 10%.

`CC(C)COc1cc(CNCC2CCNC2)cc(OCc2ccc(C(F)(F)F)cc2)c1` (stereo not drawn) [Example 264]: the activity at 25 µM is not above 10%.

For the compound `CC(C)COc1cc(CNCC2CCNC2)cc(OCc2ccc(C(F)(F)F)cc2C(F)(F)F)c1` (stereo not drawn) [Example 265], the activity at 25 µM is not above 10%.

On to `COc1cc(C#N)ccc1COc1cc(CNCC2CCNC2)cc(OCC(C)C)c1` (stereo not drawn) [Example 266], for which the activity at 25 µM is not above 10%.

Consider `CC(C)COc1cc(CNCC2CCNC2)cc(OCc2ccc(Cl)cn2)c1` (stereo not drawn) [Example 267], for which the activity at 25 µM is not above 10%.

Take `CC(C)COc1cc(CNCC2CCNC2)cc(OCc2ccc(F)cc2Br)c1` (stereo not drawn) [Example 268]: the activity at 25 µM is not above 10%.

With `CC(C)COc1cc(CNCC2CCNC2)cc(OCc2ccc(Cl)nc2)c1` (stereo not drawn) [Example 269], the activity at 25 µM was not above 10%.

Turning to `CC(C)COc1cc(CNCC2CCNC2)cc(OCc2ccc(C(F)(F)F)cc2F)c1` (stereo not drawn) [Example 271], the activity at 25 µM was not above 10%.

Take `C=CCOc1cc(/C=C/c2ccc(F)cc2)cc(CNCC2CNC2)c1` [Example 272]: the activity at 25 µM is not above 10%.

The same experiment, now with this note: Escherichia coli, ATCC25922, compound at 50 μM; minocycline 0.25 μg/mL; OD625 23 h minus 1 h; read-out: residual growth of E. coli ATCC25922 (% of uninhibited control) with minocycline.
On to `Ic1ccccc1COc1cccc(CNCC2CNC2)c1` [Example 195], for which the activity at 50 µM is not above 50%.
